# Results from patent US20110052674A1, “ANGIOTENSIN II RECEPTOR BLOCKER DERIVATIVES” (MERCK SHARP & DOHME CORP., priority 2008, published 2011).
# Legend:
# [1] = tested on: isolated rabbit thoracic aorta preparations; assay: Studies on vascular tone: vasorelaxation in isolated rabbit thoracic aorta preparations; format: cell-based; conditions: vasorelaxation of rabbit aortic rings precontracted with noradrenaline 1 μM, functional endothelium; for EC50: Oryctolagus cuniculus, read-out: EC50 (μM) ± sem
# Description: The ability of ARB nitroderivatives to induce vasorelaxation in comparison to native ARBs, was tested in vitro in isolated rabbit thoracic aorta preparations (Wanstall J. C. et al., Br. J. Pharmacol., 134:463-472, 2001). Male New Zealand rabbits were anaesthetized with thiopental-Na (50 mg/kg, iv), sacrificed by exsanguinations and then the thorax was opened and the aorta dissected. Aortic ring preparations (4 mm in length) were set up in physiological salt solution (PSS) at 37° C. in small organ chambers (5 ml). The composition of PSS was (mM): NaCl 130, NaHCO3 14.9, KH2PO4 1.2, MgSO4 1.2, HEPES 10, CaCl2, ascorbic acid […] and glucose […] (95% O2/5% CO2; pH 7.4). Each ring was mounted under 2 g passive tension. Isometric tension was recorded with a Grass transducer (Grass FT03) attached to a BIOPAC MP150 System. Preparations were allowed to equilibrate for 1 h, and then contracted submaximally with noradrenaline (NA, 1 μM) and, when the contraction was stable, acetylcholine (ACh, 10 μM) was added. A relaxant response to ACh indicated the presence of a functional endothelium. […] When a stable precontraction was reached, a cumulative concentration-response curve to either of the vasorelaxant agents was obtained in the presence of a functional endothelium. Each arterial ring was exposed to only one combination of inhibitor and vasorelaxant. Moreover, the effect of the soluble guanylyl cyclase inhibitor ODQ (1-H-(1,2,4)-oxadiazol(4,3-a)quinoxalin-1-one) on vasorelaxation elicited by the compounds was examined preincubating the aortic rings with ODQ (10 μM) for 20 min.
# Responses to relaxing agents are expressed as a percentage of residual contraction and plotted against concentration of test compound. EC50 values (where EC50 is the concentration producing 50% of the maximum relaxation to the test compound) were interpolated from these plots. During the experimental period, the plateau obtained with NA was stable without significant spontaneous loss of contraction in the aortic rings.
# Furthermore, in experiments performed in the presence of ODQ (10 μM), the vasorelaxant responses to tested compounds were inhibited.
# [2] = Solubility test in PEG 400/H2O 7/3; format: physicochemical; conditions: PEG 400/H2O 7/3, aqueous with cosolvent or surfactant or cyclodextrin, thermodynamic from solid; PEG400/H2O 70:30, 5.0 mg in 1 ml, mixed 1 hour, filtered; read-out: Solubility PEG400/H2O 70:30 (mg/ml) target 5 mg/ml
# Description: The solubility of the tested compounds in PEG 400/H2O 7/3 was evaluated using a standard curve constructed of six calibration points by plotting the peak areas of the compounds of the invention versus the concentration.
# Test solution: 5.0 mg of the nitroderivative were dissolved in 0.7 ml of PEG 400 in a glass volumetric flask and 0.3 ml of water were added. The solution was mixed for 1 hour and filtered through 0.45 μm Acrodisc filter.
# [3] = tested on: spontaneously hypertensive rats (SHRs); assay: Antihypertensive activity in vivo in conscious spontaneously hypertensive rats; parameters: species or system rat; conditions: SHR, 10 mpk po single dose, delta vs baseline, telemetry (EXP 3174: tail-cuff method)
# Description: The ability of the compounds of the invention to decrease blood pressure was evaluated in conscious spontaneously hypertensive rats (SHRs). SHRs (250-300 g) received a single oral dose of EXP 3174 or the corresponding nitroderivative. Systolic blood pressure (SBP) and heart rate were monitored by telemetry for 24 hours after dosing. SBP was evaluated before (baseline) and after (i.e. 6, 24 hours) treatment by oral administration of the compounds. The data were processed both as the absolute value or as a delta between the absolute value and its own baseline.
# The Dataquest IV telemetry system (Data Sciences International) was used for measurement of systolic pressure, diastolic pressure, mean arterial pressure, heart rate, and motor activity. The monitoring system consists of a transmitter (radio frequency transducer model TA11PA), receiver panel, consolidation matrix, and personal computer with accompanying software. Before the device was implanted, calibrations were verified to be accurate within ±3 mmHg. Rats were anesthetized with ketamine/xylazine/acepromazine, and the flexible catheter of the transmitter was surgically secured in the abdominal aorta just below the renal arteries. The transmitter was sutured subcutaneously. Rats were housed in individual cages after the operation. Each cage was placed over the receiver panel that was connected to the personal computer for data acquisition. The rats were unrestrained and free to move within their cages. Hemodynamic data were sampled every 2 minutes for 10 seconds.
Structure (SMILES),EC50 (μM) ± sem [1],EC50 [1],solubility at 1 h [2],Δ Systolic blood pressure (mmHg) 6 hrs [3],Δ Systolic blood pressure (mmHg) 24 hrs [3]
"CCCCc1nc(Cl)c(CO)n1Cc1ccc(-c2ccccc2-c2nn[nH]n2)cc1 [Losartan, reference compound]",no effect,–,–,–,–
"CCCCc1nc(Cl)c(C(=O)N[C@@H](Cc2ccccc2)C(=O)OCCCCC(CO[N+](=O)[O-])O[N+](=O)[O-])n1Cc1ccc(-c2ccccc2-c2nnn[nH]2)cc1 (stereo in doubt) [EX. 9, (S)-(5,6-bis(nitrooxy)hexyl) 2-(1-((2′-(1H-tetrazol-5-yl)biphenyl-4-yl)methyl)-2-butyl-4-chloro-1H-imidazole-5-carboxamido)-3-phenylpropanoate]",–,3.4 ± 0.8 µM,4.9 mg/mL,–,–
"CCCCc1nc(Cl)c(C(=O)NCC(=O)OCc2ccc(CO[N+](=O)[O-])cc2)n1Cc1ccc(-c2ccccc2-c2nnn[nH]2)cc1 [(46), 4-(nitrooxymethyl)benzyl 2-(1-((2′-(2H-tetrazol-5-yl)biphenyl-4-yl)methyl)-2-butyl-4-chloro-1H-imidazole-5-carboxamido)acetate]",–,–,5.07 mg/mL,–,–
"CCCCc1nc(Cl)c(C(=O)O)n1Cc1ccc(-c2ccccc2-c2nn[nH]n2)cc1 [EXP 3174, 2-butyl-4-chloro-1-{[2′-(1H-tetrazol-5-yl)biphenyl-4-yl]methyl}-1H-imidazole-5-carboxylic acid, reference compound]",no effect,–,–,−5 mmHg,2 mmHg
CCCCc1nc(Cl)c(C(=O)N[C@@H](Cc2ccccc2)C(=O)OCCCCO[N+](=O)[O-])n1Cc1ccc(-c2ccccc2-c2nnn[nH]2)cc1 [EX. 6],–,14.2 ± 8 µM,> 5 mg/mL,−12 mmHg,−13 mmHg
"CCCCc1nc(Cl)c(C(=O)NCC(=O)NCCCCO[N+](=O)[O-])n1Cc1ccc(-c2ccccc2-c2nnn[nH]2)cc1 [EX. 11, 4-(2-(1-((2′-(1H-tetrazol-5-yl)biphenyl-4-yl)methyl)-2-butyl-4-chloro-1H-imidazole-5-carboxamido)acetamido)butyl nitrate]",–,38.7 ± 5.3 µM,4.6 mg/mL,−6 mmHg,−17 mmHg
"CCCCc1nc(Cl)c(C(=O)NCC(=O)OCCCCO[N+](=O)[O-])n1Cc1ccc(-c2ccccc2-c2nnn[nH]2)cc1 [EX. 5, 4-(Nitrooxy)butyl 2-(1-((2′-(1H-tetrazol-5-yl)biphenyl-4-yl)methyl)-2-butyl-4-chloro-1H-imidazole-5-carboxamido)acetate]",–,9.2 ± 2.5 µM,4.2 mg/mL,−7 mmHg,−11 mmHg
"CCCCc1nc(Cl)c(COC(=O)NCC(=O)OCCCCO[N+](=O)[O-])n1Cc1ccc(-c2ccccc2-c2nnn[nH]2)cc1 [EX. 3, 4-(nitrooxy)butyl 2-(((1-((2′-(1H-tetrazol-5-yl)biphenyl-4-yl)methyl)-2-butyl-4-chloro-1H-imidazol-5-yl)methoxy)carbonylamino)acetate]",–,9.2 ± 4.1 µM,> 5 mg/mL,–,–
"CCCCc1nc(Cl)c(C(=O)N2CCC[C@H]2C(=O)OCCCCO[N+](=O)[O-])n1Cc1ccc(-c2ccccc2-c2nn[nH]n2)cc1 [EX. 7, (S)-4-(nitrooxy)butyl 1-(1-((2′-(2H-tetrazol-5-yl)biphenyl-4-yl)methyl)-2-butyl-4-chloro-1H-imidazole-5-carbonyl)pyrrolidine-2-carboxylate]",–,7.1 ± 1.9 µM,> 5 mg/mL,–,–
"CCCCc1nc(Cl)c(C(=O)N[C@@H](CCCNC(=N)N)C(=O)OCCCCO[N+](=O)[O-])n1Cc1ccc(-c2ccccc2-c2nn[nH]n2)cc1 [EX. 13, (S)-4-(nitrooxy)butyl 2-(1-((2′-(2H-tetrazol-5-yl)biphenyl-4-yl)methyl)-2-butyl-4-chloro-1H-imidazole-5-carboxamido)-5-guanidinopentanoate]",–,30.6 ± 4.7 µM,–,–,–
"CCCCc1nc(Cl)c(COC(=O)N[C@@H](CCCCN)C(=O)OCCCCO[N+](=O)[O-])n1Cc1ccc(-c2ccccc2-c2nnn[nH]2)cc1 [EX. 4, 4-(nitrooxy)butyl 2-(((1-((2′-(1H-tetrazol-5-yl)biphenyl-4-yl)methyl)-2-butyl-4-chloro-1H-imidazol-5-yl)methoxy)carbonylamino)-6-aminohexanoate]",–,46 ± 7.2 µM,–,–,–
"CCCCc1nc(Cl)c(COC(=O)N[C@H](COC(=O)CCCO[N+](=O)[O-])Cc2ccccc2)n1Cc1ccc(-c2ccccc2-c2nnn[nH]2)cc1 [EX. 2, (S)-2-(((1-((2′-(1H-tetrazol-5-yl)biphenyl-4-yl)methyl)-2-butyl-4-chloro-1H-imidazol-5-yl)methoxy)carbonylamino)-3-phenylpropyl 4-(nitrooxy)butanoate]",–,40.1 ± 2.7 µM,> 5 mg/mL,–,–
CCCCc1nc(Cl)c(C(=O)N[C@@H](CCC(=O)OCCCCO[N+](=O)[O-])C(=O)OCCCCO[N+](=O)[O-])n1Cc1ccc(-c2ccccc2-c2nn[nH]n2)cc1 [EX. 10],–,5.4 ± 1.8 µM,–,−6 mmHg,−11 mmHg
"CCOc1nc2cccc(C(=O)O)c2n1Cc1ccc(-c2ccccc2-c2nnn[nH]2)cc1 [Candesartan, reference compound]",no effect,–,–,–,–
"CCCCc1nc(Cl)c(C(=O)N[C@@H](CC(=O)OCCCCO[N+](=O)[O-])C(=O)OCCCCO[N+](=O)[O-])n1Cc1ccc(-c2ccccc2-c2nn[nH]n2)cc1 [EX. 8, (S)-bis(4-(nitrooxy)butyl) 2-(1-((2′-(2H-tetrazol-5-yl)biphenyl-4-yl)methyl)-2-butyl-4-chloro-1H-imidazole-5-carboxamido)succinate]",–,10.4 ± 2.5 µM,–,–,–
"CCCCc1nc(Cl)c(COC(=O)NCCOC(=O)CCCO[N+](=O)[O-])n1Cc1ccc(-c2ccccc2-c2nnn[nH]2)cc1 [EX. 1, 2-(((1-((2′-(1H-tetrazol-5-yl)biphenyl-4-yl)methyl)-2-butyl-4-chloro-1H-imidazol-5-yl)methoxy)carbonylamino)ethyl 4-(nitrooxy)butanoate]",–,23.6 ± 3.9 µM,4 mg/mL,–,–
